Literature values in US20090311315A1, “Multimicroparticulate Oral Pharmaceutical Form with Modified Release of Angiotensin II Receptor Antagonists” (FLAMEL TECHNOLOGIES, S.A., priority 2005, published 2009).

Settings: in vivo

| elimination half-life [h] | Molecule |
| --- | --- |
| 4 to 9 | CCOc1nc2cccc(C(=O)O)c2n1Cc1ccc(-c2ccccc2-c2nnn[nH]2)cc1 [cardesartan] |
| 4 to 6 | CCCCC(=O)N(Cc1ccc(-c2ccccc2-c2nnn[nH]2)cc1)[C@H](C(=O)O)C(C)C [valsartan] |
| 5 to 9 | eprosartan cilexitil |
